This is an account of results in patent publication US20240197666A1, “DITERPENOID COMPOUNDS THAT ACT ON PROTEIN KINASE C (PKC)” (K-Gen Therapeutics, Inc., priority 2021, published 2024).

Like-named read-outs stand apart in the source and are kept apart here.

Experiment [1] addresses T1, C1b domain of human PKCα (Homo sapiens, UniProt P17252).
T1 construct: Genes encoding C1b domains of human PKCα, δ, ε, θ, and PKD1 (PKCμ) were synthesized; made in house; host or cells: E. coli BL21(DE3)
The experiment in a line: biochemical. It counts as binding. The settings on record: 3H-PDBu competition.

Experiment [2] has as its system A549 cell line. The experiment in a line: Proliferation of A549 (CellTiter Glo). It counts as cell-based. The settings on record: Homo sapiens, A549, 96 h, read-out: IC50 μM (A549 Cell Line). The method, boiled down:
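A549 cells (K-Ras-mutant NSCLC) were seeded at 1,000 cells/well, allowed 24 h to settle, then exposed for 96 h to 3-fold serially diluted compound (final DMSO ≤0.25%). CellTiter Glo luminescence was read, and inhibition was calculated relative to DMSO-only wells. IC50, relative IC50 and % top inhibition came from curve fitting.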
For orientation: Cellular ATP, detected with luciferase, serves as a proxy for viable cell number.

The test system of experiment [3] is Panc2.13 (Pancreatic). The experiment in a line: Proliferation of Panc2.13. The settings on record: for IC50: read-out: IC50 Panc2.13 (Pancreatic). The format is cell-based. The method, boiled down: (§1)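 Cells seeded per line (KP-4 800-1000, Panc2.13 3000, Namalwa and Mino 5000-10000 cells/well), 24 h at 37° C, then 96 h with 3-fold serial dilutions of compound, final DMSO ≤0.25%. CellTiter Glo luminescence read; % inhibition vs DMSO-only max, IC50 fitted. Potency also normalized as ratio to comparator K101 across batches.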

Experiment [4] has as its system KP-4 (Pancreatic). The experiment in a line: Proliferation of KP-4. The format is cell-based. The settings on record: read-out: IC50 KP-4 (Pancreatic). The method, boiled down: as §1
The test system of experiment [5] is HL-60 (Leukemia). The experiment in a line: Proliferation of HL-60. It counts as cell-based. The settings on record: for IC50: Homo sapiens, HL-60, read-out: IC50 HL-60 (Leukemia).
The subject of experiment [6] is Namalwa (Lymphoma). The experiment in a line: Proliferation of Namalwa. The format is cell-based. The settings on record: for IC50: read-out: IC50 Namalwa (Lymphoma). The method, boiled down:
as §1

Experiment [7] deals with Mino (Lymphoma). The experiment in a line: Proliferation of Mino. The settings on record: for IC50: Homo sapiens, MINO, read-out: IC50 Mino (Lymphoma). The format is cell-based. In outline: as §1
The test system of experiment [8] is NFκB-driven transcription in HeLa-NFκB luciferase reporter cell line. The experiment in a line: NFκB luciferase reporter assay. The settings on record: Homo sapiens, HeLa, 16 h, read-out: NFκB-luc HeLa cells EC50 (μM). For orientation: Reporter assays use an easily measured gene product as a stand-in for the process of interest.
Procedure: A HeLa-NFκB luciferase reporter cell line (Wuxi Biology) was used to assess a group of PKC activator compounds for their ability to activate NFκB-driven transcription. […] One set of cells was assayed for luciferase activity (Promega, Cat #E1500) and the other set was assayed to determine the number of viable cells (for cell number normalization) using CellTiter-Glo (CTG) kit (Promega, Cat #G7570) according to manufacture's procedures. Normalized data (luciferase value/CTG value) were analyzed using GraphPad Prism5 to calculate EC50 for each compound (see Table 8).
To assess if activation of PKC is required for these compounds to activate NFκB, several PKC inhibitors including broad-spectrum and conventional PKC inhibitors were tested. In the assay described above, PKC inhibitors were added at the same time as the PKC activator compounds.
In experiment [9] the test system is PANC1 cells. The experiment in a line: Sphere formation assay. The settings on record: Homo sapiens, PANC-1, read-out: concentration exhibiting at least 50% inhibition on the sphere forming efficiency. It counts as cell-based. On the procedure:
A group of diterpenoid compounds of the present disclosure were tested to assess their effects on blocking formation of spheres from cancer cell lines such as PANC1, a K-Ras mutant pancreatic cell line. Briefly, PANC1 cells were harvested, re-suspended as single cell suspensions, counted and seeded into Ultra Low Attachment Culture 96-well plate (Corning, Cat #3474) at 100 cells/well in 100 μl of complete media (with 10% FBS) containing 2% Matrigel (Corning, Cat #354234) and DMSO or compounds. Six replicates per condition were seeded. The seeded cells were placed in the 37° C. tissue culture incubator. 10 μl of low serum containing media (with 0.1% FBS) was added to each well every week. Spheres formed after 3-4 weeks were counted. Sphere forming efficiency was expressed as percentage of # of spheres/ # of cells seeded.

Experiment [10] deals with Panc2.13 tumors. The experiment in a line: Panc2.13 xenograft model, intra-tumoral injection. It counts as in vivo, mouse. The settings on record: for Tumor growth inhibition T/C: Day 45, seven daily IT injections, Nu/Nu mice; for tumor clearance: end of efficacy study, three mice per group, seven daily IT injections. On the procedure:
Immunodeficient (athymic) Nu/Nu mice were implanted at one flank subcutaneously with Panc2.13 pancreatic cancer cells. […] All groups tolerated drug treatments very well. […] Scabs formed after 1-2 weeks and the skin recovered with minimal scaring after 3-4 weeks. Tumor growth/re-growth on or near the injection site was monitored for up to 55 days. […] Tumor growth inhibition is calculated by dividing the group average tumor volume for the treated group by the group average tumor volume for the control group (TIC). A one-way ANOVA was performed to compare tumor volume among groups, and when a significant F-statistics (a ratio of treatment variance to the error variance) was obtained, comparisons between groups were carried out with Games-Howell test. All data were analyzed using GraphPad 5.0. P<0.05 was considered to be statistically significant.
A Mann-Whitney method was performed to analyze the tumor clearance rate comparing drug treated groups with the vehicle group at the end of the efficacy study. P<0.05 was considered to be statistically significant. Vehicle-injected tumors kept growing and there was no tumor clearance at the end point.

In general, Ki refers to a measure of affinity in units of concentration, obtained from inhibition or displacement. A low value points to a stronger hold on the target. The EC50 is the midpoint of the concentration-response curve.

Take `CC1=C[C@H]2[C@@]3(O)[C@H](C)C[C@]4(OC(=O)[C@@H](N)CC5CCCCC5)[C@H]([C@@H]3C=C(CO)C[C@]2(O)C1=O)C4(C)C`: in experiment [1], the Ki is 60 to 100 nM. Besides, the IC50 in experiment [2] lay within 0.06 to 0.1 µM; in experiment [3], 100 to 200 nM; in experiment [4] it was 100 to 200 nM; in experiment [5], 30 to 60 nM; in [6] it was 30 to 60 nM; in experiment [7], 1 to 10 nM. The “ratio (IC50 of K101)/(IC50 of compound) Panc2.13” value in experiment [3] is given as 7.1. Moreover, in experiment [5], the “ratio (IC50 of K101)/(IC50 of compound) HL-60” value is 2.32. Moreover, in experiment [6], the “ratio (IC50 of K101)/(IC50 of compound) Namalwa” value worked out at 2.03. For the same compound, in experiment [7], the “ratio (IC50 of K101)/(IC50 of compound) Mino” value came to 7.33. In experiment [8], the EC50 lay in the range of 0.03 to 0.06 µM.

As for `CC1=C[C@H]2[C@@]3(O)[C@H](C)C[C@]4(OC(=O)[C@@H](N)C5Cc6ccccc6C5)[C@H]([C@@H]3C=C(CO)C[C@]2(O)C1=O)C4(C)C`, the IC50 in experiment [2] is 0.06 to 0.1 µM; in [3] it was 100 to 200 nM; in experiment [4] (96 h) it was 100 to 600 nM; in [5] it was 30 to 60 nM; in [6], 30 to 60 nM; in experiment [7] it was 10 to 30 nM. In addition, the IC50 in [9] is at most 150 nM. Moreover, in [3], the “ratio (IC50 of K101)/(IC50 of compound) Panc2.13” value turned out to be 5.82. Further, in [5], the “ratio (IC50 of K101)/(IC50 of compound) HL-60” value is 1.79. In [6], the “ratio (IC50 of K101)/(IC50 of compound) Namalwa” value came out at 1.6. Moreover, in [7], the “ratio (IC50 of K101)/(IC50 of compound) Mino” value was determined as 5.5. In addition, in [8], the EC50 lay in the range of 0.06 to 0.1 µM.

As for `CC1=C[C@H]2[C@@]3(O)[C@H](C)C[C@]4(OC(=O)[C@H](N)CCCCCCc5ccccc5)[C@H]([C@@H]3C=C(CO)C[C@]2(O)C1=O)C4(C)C`, the IC50 in experiment [2] was in the range of 0.01 to 0.03 µM; in [3] (96 h), 100 to 600 nM; in experiment [4] it was 30 to 60 nM; in experiment [5] it was 10 to 30 nM; in [6], 10 to 30 nM; in experiment [7], 1 to 10 nM. In addition, the IC50 in experiment [9] is at most 150 nM. Moreover, the “ratio (IC50 of K101)/(IC50 of compound) Panc2.13” value in [3] worked out at 13.4. In addition, the “ratio (IC50 of K101)/(IC50 of compound) HL-60” value in [5] is listed as 4.43. For the same compound, in experiment [6], the “ratio (IC50 of K101)/(IC50 of compound) Namalwa” value was determined as 4.93. For the same compound, the “ratio (IC50 of K101)/(IC50 of compound) Mino” value in experiment [7] was 21.3. In addition, the “Tumor growth inhibition T/C” value in experiment [10] worked out at 0. Moreover, the EC50 in experiment [8] lay within 0.01 to 0.03 µM.

In the case of `CC1=C[C@H]2[C@@]3(O)[C@H](C)C[C@]4(OC(=O)[C@@H](N)[C@]56C[C@H]7C[C@H](C[C@H](C7)C5)C6)[C@H]([C@@H]3C=C(CO)C[C@]2(O)C1=O)C4(C)C`, the Ki in experiment [1] lay in the range of 10 to 30 nM. The IC50 in experiment [2] is 0.001 to 0.01 µM; in [3], 10 to 30 nM; in experiment [4], 1 to 10 nM; in experiment [5], 1 to 10 nM; in experiment [6], 1 to 10 nM; in experiment [7], 1 to 10 nM. The IC50 in [9] is at most 50 nM. In addition, the “ratio (IC50 of K101)/(IC50 of compound) Panc2.13” value in [3] came out at 71.7. The “ratio (IC50 of K101)/(IC50 of compound) HL-60” value in [5] is listed as 16.2. Moreover, the “ratio (IC50 of K101)/(IC50 of compound) Namalwa” value in experiment [6] is listed as 18.2. In addition, the “ratio (IC50 of K101)/(IC50 of compound) Mino” value in [7] turned out to be 52.2. In addition, the “Tumor growth inhibition T/C” value in [10] came to 3.3. In addition, the tumor clearance entry in [10] is given as “two out of three”. The EC50 in [8] fell in the range of 0.001 to 0.01 µM.

As to `CC1=C[C@H]2[C@@]3(O)[C@H](C)C[C@]4(OC(=O)[C@@H](N)CCCCCCc5ccccc5)[C@H]([C@@H]3C=C(CO)C[C@]2(O)C1=O)C4(C)C`, the IC50 is 0.001 to 0.01 µM in experiment [2]; 10 to 30 nM in experiment [3]; 1 to 10 nM in experiment [4]; 1 to 10 nM in experiment [5]; 1 to 10 nM in [6]; 1 to 10 nM in [7]. In addition, the IC50 in experiment [9] is at most 50 nM. Further, the “ratio (IC50 of K101)/(IC50 of compound) Panc2.13” value in experiment [3] is recorded as 57.3. Besides, in [5], the “ratio (IC50 of K101)/(IC50 of compound) HL-60” value was determined as 12.1. Further, the “ratio (IC50 of K101)/(IC50 of compound) Namalwa” value in [6] was found to be 16.1. In addition, in [7], the “ratio (IC50 of K101)/(IC50 of compound) Mino” value amounted to 52.2. Further, the tumor clearance entry in experiment [10] is reported as “one out of three”. Besides, the EC50 in experiment [8] was in the range of 0.001 to 0.01 µM.
